This note sets out measurements from the NIST ThermoML archive (doi:10.1016/j.fluid.2014.06.021).

The nature of this series: activity coefficient (dimensionless); of the first substance listed, at infinite dilution; xn = mol fraction of the nth substance listed. As to conditions: 101.33 kPa, Liquid, Chromatography, x1 = 0.

Structures are written as SMILES. ± gives the expanded uncertainty stated by the source.

For `Cc1ccccc1C` [1,2-dimethylbenzene] + C[n+]1ccn(CCCCS(=O)(=O)O)c1.O=S(=O)([N-]S(=O)(=O)C(F)(F)F)C(F)(F)F, the activity coefficient was determined as 4.39 ± 0.3 (323.15 K), 4.64 ± 0.32 (333.15 K) and 4.8 ± 0.3 (343.15 K).
Regarding `Cc1ccccc1C` [1,2-dimethylbenzene] + C[n+]1ccn(CCCCS(=O)(=O)O)c1.O=S(=O)([O-])C(F)(F)F, the activity coefficient came to 8.26 ± 0.56 (323.15 K), 8.21 ± 0.56 (333.15 K) and 7.97 ± 0.54 (343.15 K).
For `Cc1ccccc1C` [1,2-dimethylbenzene] + C[n+]1ccn(CCCCS(=O)(=O)O)c1.O=S(=O)([O-])O, in that order: 43.8 ± 3, 41.3 ± 2.8 and 40.8 ± 2.8.
For `Cc1cccc(C)c1` [1,3-dimethylbenzene] + C[n+]1ccn(CCCCS(=O)(=O)O)c1.O=S(=O)([N-]S(=O)(=O)C(F)(F)F)C(F)(F)F, in that order: 5.19 ± 0.35, 5.49 ± 0.37 and 5.57 ± 0.38.
Taken in the same sequence, the figures for `Cc1cccc(C)c1` [1,3-dimethylbenzene] + C[n+]1ccn(CCCCS(=O)(=O)O)c1.O=S(=O)([O-])C(F)(F)F were 10.4 ± 0.71, 10.1 ± 0.7 and 9.84 ± 0.67.
Take `Cc1cccc(C)c1` [1,3-dimethylbenzene] + C[n+]1ccn(CCCCS(=O)(=O)O)c1.O=S(=O)([O-])O: the activity coefficient runs as follows: (323.15 K) 62.8 ± 4.3; (333.15 K) 55.4 ± 3.8; (343.15 K) 54.5 ± 3.7.
Taken in the same sequence, the figures for `Cc1ccc(C)cc1` [1,4-dimethylbenzene] + C[n+]1ccn(CCCCS(=O)(=O)O)c1.O=S(=O)([N-]S(=O)(=O)C(F)(F)F)C(F)(F)F were 5.11 ± 0.35, 5.47 ± 0.37 and 5.55 ± 0.38.
For `Cc1ccc(C)cc1` [1,4-dimethylbenzene] + C[n+]1ccn(CCCCS(=O)(=O)O)c1.O=S(=O)([O-])C(F)(F)F, in that order: 10.1 ± 0.69, 9.86 ± 0.67 and 9.52 ± 0.65.
Taken in the same sequence, the figures for `Cc1ccc(C)cc1` [1,4-dimethylbenzene] + C[n+]1ccn(CCCCS(=O)(=O)O)c1.O=S(=O)([O-])O were 56.6 ± 3.9, 54.4 ± 3.7 and 50.6 ± 3.5.
For `C#CCCCCC` [1-heptyne] + C[n+]1ccn(CCCCS(=O)(=O)O)c1.O=S(=O)([O-])C(F)(F)F, the activity coefficient runs as follows: (323.15 K) 25.9 ± 1.8; (333.15 K) 25.7 ± 1.8; (343.15 K) 24.8 ± 1.7.
Taken in the same sequence, the figures for `C#CCCCC` [1-hexyne] + C[n+]1ccn(CCCCS(=O)(=O)O)c1.O=S(=O)([O-])C(F)(F)F were 15.5 ± 1.1, 14.4 ± 0.99 and 13.5 ± 0.92.
Taken in the same sequence, the figures for `CCC[N+](=O)[O-]` [1-nitropropane] + C[n+]1ccn(CCCCS(=O)(=O)O)c1.O=S(=O)([N-]S(=O)(=O)C(F)(F)F)C(F)(F)F were 1.17 ± 0.07, 1.17 ± 0.07 and 1.18 ± 0.08.
Taken in the same sequence, the figures for `CCC[N+](=O)[O-]` [1-nitropropane] + C[n+]1ccn(CCCCS(=O)(=O)O)c1.O=S(=O)([O-])C(F)(F)F were 1.84 ± 0.12, 1.8 ± 0.12 and 1.77 ± 0.12.
Take `CCC[N+](=O)[O-]` [1-nitropropane] + C[n+]1ccn(CCCCS(=O)(=O)O)c1.O=S(=O)([O-])O: the activity coefficient by setting is: (323.15 K) 7.05 ± 0.48; (333.15 K) 6.92 ± 0.47; (343.15 K) 6.82 ± 0.46.
Take `CC(C)CO` [2-methyl-1-propanol] + C[n+]1ccn(CCCCS(=O)(=O)O)c1.O=S(=O)([N-]S(=O)(=O)C(F)(F)F)C(F)(F)F: the activity coefficient (333.15 K) is 0.22 ± 0.03 and the activity coefficient (343.15 K) was 0.26 ± 0.03.
In the case of `CC#N` [acetonitrile] + C[n+]1ccn(CCCCS(=O)(=O)O)c1.O=S(=O)([N-]S(=O)(=O)C(F)(F)F)C(F)(F)F, the activity coefficient (323.15 K) amounted to 0.4 ± 0.1, the activity coefficient (333.15 K) came to 0.42 ± 0.04 and the activity coefficient (343.15 K) worked out at 0.45 ± 0.04.
As for `CC#N` [acetonitrile] + C[n+]1ccn(CCCCS(=O)(=O)O)c1.O=S(=O)([O-])C(F)(F)F, the activity coefficient is 0.68 ± 0.05 (323.15 K), 0.67 ± 0.05 (333.15 K) and 0.68 ± 0.05 (343.15 K).
For the compound `CC#N` [acetonitrile] + C[n+]1ccn(CCCCS(=O)(=O)O)c1.O=S(=O)([O-])O, the activity coefficient is, setting by setting: (323.15 K) 1.74 ± 0.12; (333.15 K) 1.73 ± 0.12; (343.15 K) 1.73 ± 0.12.
As for `c1ccccc1` [benzene] + C[n+]1ccn(CCCCS(=O)(=O)O)c1.O=S(=O)([N-]S(=O)(=O)C(F)(F)F)C(F)(F)F, the activity coefficient runs as follows: (323.15 K) 1.95 ± 0.13; (333.15 K) 2.07 ± 0.14; (343.15 K) 2.15 ± 0.15.
As to `c1ccccc1` [benzene] + C[n+]1ccn(CCCCS(=O)(=O)O)c1.O=S(=O)([O-])C(F)(F)F, the activity coefficient was 3.36 ± 0.23 (323.15 K), 3.29 ± 0.22 (333.15 K) and 3.2 ± 0.2 (343.15 K).
As to `c1ccccc1` [benzene] + C[n+]1ccn(CCCCS(=O)(=O)O)c1.O=S(=O)([O-])O, the activity coefficient (323.15 K) was determined as 14.4 ± 0.98, the activity coefficient (333.15 K) amounted to 12.5 ± 0.85 and the activity coefficient (343.15 K) is 12.2 ± 0.83.
With `CCCCO` [butan-1-ol] + C[n+]1ccn(CCCCS(=O)(=O)O)c1.O=S(=O)([N-]S(=O)(=O)C(F)(F)F)C(F)(F)F, the activity coefficient reads like this: (333.15 K) 0.19 ± 0.03; (343.15 K) 0.23 ± 0.03.
`CCC(C)=O` [butanone] + C[n+]1ccn(CCCCS(=O)(=O)O)c1.O=S(=O)([N-]S(=O)(=O)C(F)(F)F)C(F)(F)F: the activity coefficient by setting is: (323.15 K) 0.24 ± 0.03; (333.15 K) 0.27 ± 0.03; (343.15 K) 0.3 ± 0.1.
Taken in the same sequence, the figures for `CCC(C)=O` [butanone] + C[n+]1ccn(CCCCS(=O)(=O)O)c1.O=S(=O)([O-])C(F)(F)F were 1.06 ± 0.07, 1 ± 0.06 and 0.96 ± 0.06.
For `CCC(C)=O` [butanone] + C[n+]1ccn(CCCCS(=O)(=O)O)c1.O=S(=O)([O-])O, in that order: 5.49 ± 0.37, 5.17 ± 0.35 and 4.47 ± 0.3.
On to `C1CCCCCC1` [cycloheptane] + C[n+]1ccn(CCCCS(=O)(=O)O)c1.O=S(=O)([N-]S(=O)(=O)C(F)(F)F)C(F)(F)F, for which the activity coefficient was found to be 92.5 ± 6.4 (323.15 K), 144 ± 9.9 (333.15 K) and 180 ± 12 (343.15 K).
Taken in the same sequence, the figures for `C1CCCCCC1` [cycloheptane] + C[n+]1ccn(CCCCS(=O)(=O)O)c1.O=S(=O)([O-])C(F)(F)F were 225 ± 15, 270 ± 19 and 287 ± 20.
Taken in the same sequence, the figures for `CCCCCCCCCC` [decane] + C[n+]1ccn(CCCCS(=O)(=O)O)c1.O=S(=O)([N-]S(=O)(=O)C(F)(F)F)C(F)(F)F were 371 ± 26, 336 ± 23 and 281 ± 19.
For `ClCCl` [dichloromethane] + C[n+]1ccn(CCCCS(=O)(=O)O)c1.O=S(=O)([N-]S(=O)(=O)C(F)(F)F)C(F)(F)F, in that order: 1.08 ± 0.07, 1.18 ± 0.08 and 1.28 ± 0.08.
With `ClCCl` [dichloromethane] + C[n+]1ccn(CCCCS(=O)(=O)O)c1.O=S(=O)([O-])C(F)(F)F, the activity coefficient (323.15 K) was found to be 1.3 ± 0.08, the activity coefficient (333.15 K) turned out to be 1.46 ± 0.1 and the activity coefficient (343.15 K) is 1.61 ± 0.11.
In the case of `ClCCl` [dichloromethane] + C[n+]1ccn(CCCCS(=O)(=O)O)c1.O=S(=O)([O-])O, the activity coefficient was 3.5 ± 0.24 (323.15 K), 3.48 ± 0.24 (333.15 K) and 3.37 ± 0.23 (343.15 K).
Taken in the same sequence, the figures for `CCOCC` [diethyl ether] + C[n+]1ccn(CCCCS(=O)(=O)O)c1.O=S(=O)([N-]S(=O)(=O)C(F)(F)F)C(F)(F)F were 0.4 ± 0.1, 0.53 ± 0.04 and 0.65 ± 0.04.
As to `CCOCC` [diethyl ether] + C[n+]1ccn(CCCCS(=O)(=O)O)c1.O=S(=O)([O-])C(F)(F)F, the activity coefficient (323.15 K) was 4.51 ± 0.31, the activity coefficient (333.15 K) came to 4.36 ± 0.3 and the activity coefficient (343.15 K) was 4.21 ± 0.29.
For `CC(C)OC(C)C` [diisopropyl ether] + C[n+]1ccn(CCCCS(=O)(=O)O)c1.O=S(=O)([O-])C(F)(F)F, in that order: 11.7 ± 0.8, 13.3 ± 0.91 and 14.9 ± 1.
Take `CCCCCCCCCCCC` [dodecane] + C[n+]1ccn(CCCCS(=O)(=O)O)c1.O=S(=O)([N-]S(=O)(=O)C(F)(F)F)C(F)(F)F: the activity coefficient came to 684 ± 47 (323.15 K), 588 ± 40 (333.15 K) and 557 ± 38 (343.15 K).
On to `CCCCCCCCCCCC` [dodecane] + C[n+]1ccn(CCCCS(=O)(=O)O)c1.O=S(=O)([O-])C(F)(F)F, for which the activity coefficient (323.15 K) was determined as 1490 ± 100, the activity coefficient (333.15 K) came out at 1020 ± 70 and the activity coefficient (343.15 K) worked out at 997 ± 69.
`CCCCCCCCCCCC` [dodecane] + C[n+]1ccn(CCCCS(=O)(=O)O)c1.O=S(=O)([O-])O: the activity coefficient reads like this: (323.15 K) 1310 ± 90; (333.15 K) 1200 ± 82; (343.15 K) 1140 ± 79.
As to `CCO` [ethanol] + C[n+]1ccn(CCCCS(=O)(=O)O)c1.O=S(=O)([N-]S(=O)(=O)C(F)(F)F)C(F)(F)F, the activity coefficient was determined as 0.08 ± 0.03 (333.15 K) and 0.1 (343.15 K).
`CCc1ccccc1` [ethylbenzene] + C[n+]1ccn(CCCCS(=O)(=O)O)c1.O=S(=O)([N-]S(=O)(=O)C(F)(F)F)C(F)(F)F: the activity coefficient worked out at 5.37 ± 0.37 (323.15 K), 5.79 ± 0.39 (333.15 K) and 5.8 ± 0.4 (343.15 K).
